Measured values as given in patent publication US9133180B2, “Aurora and FLT3 kinases modulators” (SAREUM LIMITED, priority 2012, dated 2015).

Biological target: Aurora B kinase (Homo sapiens (Human), UniProt Q96GD4)
Assay: Aurora B kinase 33P-ATP filter assay (Reaction Biology Corp.)
Format: biochemical
Method: The ability of the compounds of the invention to inhibit FLT3 kinase and Aurora A and Aurora B kinases was determined using the assays described below.
Kinase assays were performed at Reaction Biology Corp., Malvern, Pa., USA, using the following general procedure:
1) Prepare indicated substrate in freshly prepared Base Reaction Buffer (20 mM Hepes pH 7.5, 10 mM MgCl2, 1 mM EGTA, 0.02% Brij35, 0.02 mg/ml BSA, 0.1 mM Na3VO4, 2 mM DTT, 1% DMSO).
2) Deliver cofactors (1.5 mM CaCl2, 16 ug/mL Calmodulin, 2 mM MnCl2) to the substrate solution above.
3) Deliver indicated kinase into the substrate solution and gently mix
4) Deliver varying concentrations of test compound in DMSO into the kinase reaction mixture.
5) Deliver ^33P-ATP (specific activity 0.01 µCi/µL final) into the reaction mixture to initiate the reaction.
6) Incubate kinase reaction for 120 min at room temperature.
7) Reactions are spotted onto P81 ion exchange filter paper (Whatman #3698-915)
8) Unbound phosphate is removed by washing filters extensively in 0.75% phosphoric acid.
9) ^33P signal was determined using Typhoon phosphorimagers (GE Healthcare).
Substrates: Kemptide=[H-LRRASLG] Abltide=[[…]]

Chain of Aurora B kinase (Q96GD4 whole entry): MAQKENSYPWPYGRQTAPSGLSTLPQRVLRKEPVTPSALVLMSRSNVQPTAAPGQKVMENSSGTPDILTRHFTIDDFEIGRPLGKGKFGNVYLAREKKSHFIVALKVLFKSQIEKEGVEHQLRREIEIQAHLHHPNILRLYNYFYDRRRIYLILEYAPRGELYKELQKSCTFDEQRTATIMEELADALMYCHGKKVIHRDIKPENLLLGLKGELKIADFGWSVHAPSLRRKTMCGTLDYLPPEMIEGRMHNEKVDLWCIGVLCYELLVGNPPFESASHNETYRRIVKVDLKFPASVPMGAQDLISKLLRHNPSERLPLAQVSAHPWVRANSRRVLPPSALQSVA

With `Cc1ccc2[nH]ccc2c1-c1nc(C(N)=O)c(-c2ccc(N3CCNC(C)(C)C3)cc2)o1` [Example 2, 2-(5-Methyl-1H-Indol-4-yl)-5-[4-(3,3-dimethyl-piperazin-1-yl)-phenyl]-oxazole-4-carboxylic acid amide] the IC50 was 5.9 nM.
